Experiments:
[1] = tested on: Na+-dependent Cl−/HCO3− exchanger (NCBE); test: Inhibition of the Na+-dependent Cl−/HCO3− exchanger (NCBE) in human endothelial cells (pHi recovery, BCECF fluorescence, FLIPR); type: cell-based; conditions: inhibitor concentration of 10 μM; human endothelial cells (ECV-304); relative to 100% and 0% pHi recovery controls, 50 μM HOE 642 present
Method: Inhibition of the Na^+-dependent Cl^−/HCO3^− exchanger (NCBE) in human endothelial cells
Human endothelial cells (ECV-304) were detached from culture bottles with the aid of trypsin/EDTA buffer (0.05/0.02% in phosphate buffer) and, after centrifugation (100 g, 5 min), taken up in a buffered salt solution (mmol/l: 115 NaCl, 20 NH4Cl, 5 KCl, 1 CaCl2, 1 MgSO4, 20 N-(2-hydroxyethyl)piperazine-N′-2-ethanesulfonic acid (HEPES), 5 glucose and 1 g/l of bovine serum albumin; pH 7.4). This cell suspension was incubated at 37° C. for 20 min with 5 μM BCECF-acetoxymethyl ester. The cells were then washed and resuspended in a sodium- and bicarbonate-free buffer solution (mmol/l: 5 HEPES, 133.8 choline chloride, 4.7 KCl, 1.25 MgCl2, 0.97 K2HPO4, 0.23 KH2PO4, 5 glucose; pH 7.4).
For subsequent fluorescence measurement in an FLIPR (Fluorescent Imaging Plate Reader) 100 μl of this cell suspension having 20,000 cells in each case were pipetted per well into a 96-well microtiter plate and this microtiter plate was centrifuged (100 g, 5 min).
In the FLIPR, 100 μl of buffer solution in each case were then removed from a further pretreated microtiter plate and pipetted into each of the 96 wells of the measurement plate. A bicarbonate- and sodium-containing buffer solution (mmol/l: 5 HEPES, 93.8 NaCl, 40 NaHCO3, 4.7 KCl, 1.25 CaCl2, 1.25 MgCl2, 0.97 Na2HPO4, 0.23 NaH2PO4, 5 glucose; pH 7.4) which contained 50 μM HOE 642 was used for a 100% control, i.e. a recovery of the intracellular pH (pHi) via the NCBE. For a 0% control, i.e. no pHi recovery at all, the bicarbonate-free, sodium-containing buffer solution (mmol/l: 5 HEPES, 133.8 NaCl, 4.7 KCl, 1.25 CaCl2, 1.25 MgCl2, 0.97 Na2HPO4, 0.23 NaH2PO4, 5 glucose; pH 7.4) was employed, to which 50 μM HOE 642 were likewise added. The compounds according to the invention were added to the sodium- and bicarbonate-containing solution in various concentrations.
After addition of the buffer solutions to the dye-loaded, acidified cells in the measurement plate, the rise in the fluorescence intensity which corresponded to a rise in the pHi in each well of the microtiter plate was determined. The kinetics were in this case recorded at 35° C. for a period of 2 minutes.
The increase in the fluorescence intensities for different concentrations of the compounds according to the invention was related to the two controls and from this inhibitory action of the substances was determined.
Residual Activity of the NCBE at an Inhibitor Concentration of 10 μM

SMILES | melting point | Residual activity in % (residual activity of the NCBE) [1] [%]
CCOC(=O)c1c(SC)nc(C)n1Cc1ccc(-c2ccccc2S(=O)(=O)NC#N)cc1 [Example 18, Ethyl 2-methyl-5-methylsulfanyl-3-(2′-cyanoaminosulfonylbiphenyl-4-ylmethyl)-3H-imidazole-4-carboxylate] | 169 °C (dec.) | 45.8
N#CNS(=O)(=O)c1ccccc1-c1ccc(Cn2c(-c3ccccc3)nc(Cl)c2C=O)c(Cl)c1 [Example 32, 3′-Chloro-4′-(4-chloro-5-formyl-2-phenylimidazol-1-ylmethyl)biphenyl-2-sulfonylcyanamide] | – | 7.8
COc1ccc(-c2nc(Cl)c(C=O)n2Cc2ccc(-c3ccccc3S(=O)(=O)NC#N)cc2)cc1 [Example 37, 4′-[4-Chloro-5-formyl-2-(4-methoxyphenyl)-imidazole-1-ylmethyl]-biphenyl-2-sulfonylcyanamide] | 110 to 126 °C | 16.8
CCCc1nc(SC)c(C(=O)OCC)n1Cc1ccc(-c2ccccc2S(=O)(=O)NC#N)cc1 [Example 16] | 165 °C (dec.) | 11.5
CCCCc1nc(SC)c(C(=O)OCC)n1Cc1cccc(-c2cccc(S(=O)(=O)NC#N)c2)c1 [Example 5, Ethyl 2-butyl-5-methylsulfanyl-3-(3′-cyanoaminosulfonyl-biphenyl-3-ylmethyl)-3H-imidazole-4-carboxylate] | 112 °C (dec.) | 43.2
CCCCc1nc(SC)cn1Cc1ccc(-c2ccccc2S(=O)(=O)NC#N)cc1 [Example 27, 4′-(2-Butyl-4-methylsulfanylimidazol-1-ylmethyl)biphenyl-2-sulfonylcyanamide] | – | 50.0
CCCCc1nc(SC)c(C(=O)OCC)n1Cc1ccc(-c2cccc(S(=O)(=O)NC#N)c2)cc1 [Example 2, Ethyl 2-butyl-5-methylsulfanyl-3-(3′-cyanoaminosulfonylbiphenyl-4-ylmethyl)-3H-imidazole-4-carboxylate] | – | 39.6
CCCCc1nc(SC)c(C(=O)OCC)n1Cc1cccc(-c2ccc(S(=O)(=O)NC#N)cc2C(F)(F)F)c1 [Example 26, Ethyl 2-butyl-5-methylsulfanyl-3-(4′-cyanoaminosulfonyl-2′-trifluoromethylbiphenyl-3-ylmethyl)-3H-imidazole-4-carboxylate] | 122 °C (dec.) | 65.3
CCCCc1nc(SC)c(C(=O)OCC)n1Cc1ccc(-c2ccc(S(=O)(=O)NC#N)cc2C)cc1 [Example 22, Ethyl 2-butyl-3-(2′-methyl-4′-cyanoaminosulfonylbiphenyl-4-yl-methyl)-5-methylsulfanyl-3H-imidazole-4-carboxylate] | 211 °C | 34.2
CCCCc1nc(SC)c(C(=O)OCC)n1Cc1cccc(-c2ccc(S(=O)(=O)NC#N)cc2)c1 [Example 6, Ethyl 2-butyl-5-methylsulfanyl-3-(4′-cyanoaminosulfonyl-biphenyl-3-ylmethyl)-3H-imidazole-4-carboxylate] | 120 °C (dec.) | 58.6
CCCCc1nc(SC)c(C(=O)OCC)n1Cc1cccc(-c2ccc(S(=O)(=O)NC#N)cc2C)c1 [Example 25, Ethyl 2-butyl-3-(2′-methyl-4′-cyanoaminosulfonylbiphenyl-3-yl-methyl)-5-methylsulfanyl-3H-imidazole-4-carboxylate] | 115 °C (dec.) | 70.8
N#CNS(=O)(=O)c1ccccc1-c1ccc(Cn2c(-c3ccccc3)nc(-c3ccccc3)c2-c2ccccc2)cc1 [Example 31, 4′-(2,4,5-Triphenylimidazol-1-ylmethyl)biphenyl-2-sulfonylcyanamide] | – | 36.5
CCCCc1nc(SC)c(C(=O)OCC)n1Cc1ccc(-c2ccc(S(=O)(=O)NC#N)cc2)cc1 [Example 3, Ethyl 2-butyl-5-methylsulfanyl-3-(4′-cyanoaminosulfonylbiphenyl-4-ylmethyl)-3H-imidazole-4-carboxylate] | 244 °C (dec.) | 74.1
CCCCc1nc(OC)c(C#N)n1Cc1ccc(-c2ccccc2S(=O)(=O)NC#N)cc1 [Example 14, 4′-(2-Butyl-5-cyano-4-methoxyimidazol-1-ylmethyl)biphenyl-2-sulfonylcyanamide] | 160 °C (dec.) | 47.3
CCCCc1nc(SC)c(C(=O)OCC)n1Cc1cccc(-c2ccccc2S(=O)(=O)NC#N)c1 [Example 4, Ethyl 2-butyl-5-methylsulfanyl-3-(2′-cyanoaminosulfonyl-biphenyl-3-ylmethyl)-3H-imidazole-4-carboxylate] | 118 °C (dec.) | 39.7
CCCCc1nc(SC)c(C(=O)OCC)n1Cc1ccccc1-c1ccccc1S(=O)(=O)NC#N [Example 7, Ethyl 2-butyl-5-methylsulfanyl-3-(2′-cyanoaminosulfonyl-biphenyl-2-ylmethyl)-3H-imidazole-4-carboxylate] | 105 °C (dec.) | 72.1
N#CNS(=O)(=O)c1ccccc1-c1ccc(Cn2c(-c3ccc(Cl)cc3)nc(Cl)c2C=O)cc1 [Example 36, 4′-[4-Chloro-5-formyl-2-(4-chlorphenyl)-imidazole-1-ylmethyl]-biphenyl-2-sulfonylcyanamide] | 160 to 187 °C | 7.8
COc1nc(-c2ccccc2)n(Cc2ccc(-c3ccccc3S(=O)(=O)NC#N)cc2Cl)c1C=O [Example 34, 3′-Chloro-4′-(4-methoxy-5-formyl-2-phenyl-imidazole-1-ylmethyl)biphenyl-2-sulfonylcyanamide] | – | 5.5
CCCCc1nc(SC)c(C(=O)OCC)n1Cc1ccc(-c2ccc(S(=O)(=O)NC#N)cc2C(F)(F)F)cc1 [Example 23, Ethyl 2-butyl-5-methylsulfanyl-3-(4′-cyanoaminosulfonyl-2′-trifluoromethylbiphenyl-4-ylmethyl)-3H-imidazole-4-carboxylate] | – | 31.6
N#CNS(=O)(=O)c1ccccc1-c1ccc(Cn2c(-c3ccccc3)nc(Cl)c2C=O)c(F)c1 [Example 33, 3′-Fluoro-4′-(4-chloro-5-formyl-2-phenyl-imidazole-1-ylmethyl)biphenyl-2-sulfonylcyanamide] | – | 7.6
COc1nc(-c2ccccc2)n(Cc2ccc(-c3ccccc3S(=O)(=O)NC#N)cc2)c1C=O [Example 12, 4′-(4-Methoxy-5-formyl-2-phenylimidazol-1-ylmethyl)biphenyl-2-sulfonylcyanamide] | – | 20.8
N#CNS(=O)(=O)c1ccccc1-c1ccc(Cn2c(-c3ccccc3)nc(Oc3ccccc3)c2C=O)c(Cl)c1 [Example 35, 3′-Chloro-4′-(4-phenoxy-5-formyl-2-phenyl-imidazole-1-ylmethyl)biphenyl-2-sulfonylcyanamide] | – | 3.2
CC(=O)c1c(Cl)nc(-c2ccccc2)n1Cc1ccc(-c2ccccc2S(=O)(=O)NC#N)cc1 [Example 29, 4′-(5-Acetyl-4-chloro-2-phenylimidazol-1-ylmethyl)biphenyl-2-sulfonylcyanamide] | – | 39.6
N#CNS(=O)(=O)c1ccccc1-c1ccc(Cn2c(-c3ccccc3)nc(Cl)c2C=O)cc1 [Example 11, 4′-(4-Chloro-5-formyl-2-phenylimidazol-1-ylmethyl)biphenyl-2-sulfonylcyanamide] | – | 15.0
COc1nc(-c2ccccc2)n(Cc2ccc(-c3ccccc3S(=O)(=O)NC#N)cc2)c1C(C)=O [Example 30, 4′-(5-Acetyl-4-methoxy-2-phenylimidazol-1-ylmethyl)biphenyl-2-sulfonylcyanamide] | – | 48.8
N#CNS(=O)(=O)c1ccccc1-c1ccc(Cn2cc(Cl)nc2-c2ccccc2)cc1 [Example 28, 4′-(4-Chloro-2-phenylimidazol-1-ylmethyl)biphenyl-2-sulfonylcyanamide] | – | 30.5

From patent US6335451B1, “Five-membered heterocycles having biphenylsulfonyl substitution, with sulfonylcyanamide side chain, compositions containing them, and methods of using them” (Hoechst Aktiengesellschaft, priority 1997, dated 2002)
